# Reference: publication PMC8552062, “Contributions of UDP-Glucuronosyltransferases to Human Hepatic and Intestinal Metabolism of Ticagrelor and Inhibition of UGTs and Cytochrome P450 Enzymes by Ticagrelor and its Glucuronidated Metabolite” (Frontiers in Pharmacology, 2021)
# Columns and labels:
# Type in all cases: in vitro ADME
# recombinant human UGT2B4 = molecular target: T1, recombinant human UGT2B4 (Homo sapiens, UniProt P06133); assay: Ticagrelor glucuronidation screen, recombinant human UGT2B4; details: 10 μM ticagrelor
# T1 construct: purchased BD Gentest; host or cells: baculovirus-infected insect cells
# Protocol: Ticagrelor glucuronidation was investigated in an in vitro incubation system by using HLM, HIM, and recombinant human UGTs. The incubation system consisted of enzyme sources (HLM, HIM, or human recombinant UGTs), various concentrations of ticagrelor (dissolved in 50% methanol, 1% v/v, 1, 2, 5, 10, 20, 50, 100, 200, 500 μM of final concentration), alamethicin (50 μg/mg protein), 5 mM MgCl2, 100 mM tris-HCL buffer (pH 7.4), and 5 mM UDPGA in a total volume of 100 μl. Alamethicin is a pore-forming polypeptide used to activate UGTs in HLM and HIM ([Fisher et al., 2000]). Preliminary studies were conducted to determine the optimal protein concentrations and incubation times. Linear conditions of ticagrelor-O-Glu formation from ticagrelor, i.e., HLM, 0.2 mg of protein/ml and 60 min, HIM, 0.2 mg of protein/ml and 60 min, and recombinant human UGTs, 0.2 mg of protein/ml and 60 min were selected. The incubation mixture without UDPGA was placed on ice for 15 min to activate UGT by alamethicin. After pre-incubation for 5 min at 37°C, the reactions were started by the addition of UDPGA. After another 60 min of incubation at 37°C, the reaction was terminated by adding 100 μl of acetonitrile containing internal standard (diazepam). The mixture vortexed for 2 min and then centrifuged at 14,000 rpm for 10 min at 4°C. […]
# CYP2B6 = molecular target: T2, CYP2B6 (Homo sapiens, UniProt P20813); assay: CYP2B6 inhibition in HLM (bupropion hydroxylase)
# T2 construct: co-incubation ticagrelor-O-Glu with selective P450 probe substrates in HLM; tissue XenoTech LLC; host or cells: pooled human liver microsomes
# T2 sequence (P20813 1-491): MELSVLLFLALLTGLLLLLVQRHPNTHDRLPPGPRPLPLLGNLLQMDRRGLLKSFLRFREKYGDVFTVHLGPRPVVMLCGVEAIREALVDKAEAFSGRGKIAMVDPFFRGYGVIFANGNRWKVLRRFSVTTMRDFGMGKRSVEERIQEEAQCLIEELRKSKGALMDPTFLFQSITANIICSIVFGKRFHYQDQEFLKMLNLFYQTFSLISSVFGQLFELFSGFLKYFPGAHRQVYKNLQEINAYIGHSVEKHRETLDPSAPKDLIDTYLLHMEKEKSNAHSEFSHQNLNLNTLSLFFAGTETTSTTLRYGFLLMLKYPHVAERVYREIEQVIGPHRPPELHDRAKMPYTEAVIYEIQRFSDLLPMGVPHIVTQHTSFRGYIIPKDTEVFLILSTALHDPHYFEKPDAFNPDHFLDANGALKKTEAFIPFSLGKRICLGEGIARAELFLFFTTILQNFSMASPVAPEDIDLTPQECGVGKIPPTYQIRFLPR
# Protocol: (§1) The potential inhibitory effects of ticagrelor-O-Glu on the activities of major CYPs, i.e., CYP2B6, CYP2C8, CYP2C9, CYP2C19, CYP2D6, and CYP3A4, were evaluated by co-incubation ticagrelor-O-Glu with selective P450 probe substrates in HLM. Each incubation mixture containing 0.2 mg/ml HLM, ticagrelor-O-Glu and respective substrate (the final substrate concentrations are close to or less than the Km values: 150 μM bupropion, 1.26 μM amodiaquine, 10 μM diclofenac, 20 μM mephenytoin, 20 μM dextromethorphan and 80 μM testosterone (in house data)) in potassium phosphate buffer (100 mM, pH 7.4) was pre-incubated at 37°C for 5 min. Then, NADPH (10 mM) was added to initiate the reaction. The final volume of the incubation mixture was 100 μl. After incubation at 37°C for specific time points, the reaction was terminated by the addition of 200 μl of ice-cold methanol solution with internal standards (diazepam and furafylline). Preliminary screening experiments with selected concentrations of ticagrelor-O-Glu (0, 1, 10, or 100 μM of the final concentration) were carried out to determine the inhibition potency. For those that produced approximately 50% inhibition of CYPs enzyme activities at a ticagrelor-O-Glu concentration between 1 and 100 μM, IC50 was further determined with various concentrations of ticagrelor-O-Glu (0, 1, 5, 10, 20, 50, and 100 μM). All the experiments were performed in triplicates. The supernatant was obtained after centrifugation at 14,000 rpm for 10 min and injected into LC-MS/MS for the analysis of the respective metabolites. The formation of respective metabolites was determined to reflect P450 isoform activities. The metabolites quantified for CYP2B6, CYP2C8, CYP2C9, CYP2C19, CYP2D6, and CYP3A4 were hydroxy bupropion, N-Desethyl amodiaquine, 4′-hydroxylation diclofenac, S-4-hydroxy mephenytoin, dextrorphan and 6β-hydroxy testosterone, respectively.
# (§2) The percent inhibition relative to the control was calculated to indicate the UGTs or CYPs inhibition. […]
# CYP2C19 = molecular target: T3, CYP2C19 (Homo sapiens, UniProt P33261); assay: CYP2C19 inhibition in HLM ([S]-mephenytoin 4′-hydroxylase)
# T3 construct: co-incubation ticagrelor-O-Glu with selective P450 probe substrates in HLM; tissue XenoTech LLC; host or cells: pooled human liver microsomes
# Protocol: as §1, §2
# T3 sequence (P33261 whole entry): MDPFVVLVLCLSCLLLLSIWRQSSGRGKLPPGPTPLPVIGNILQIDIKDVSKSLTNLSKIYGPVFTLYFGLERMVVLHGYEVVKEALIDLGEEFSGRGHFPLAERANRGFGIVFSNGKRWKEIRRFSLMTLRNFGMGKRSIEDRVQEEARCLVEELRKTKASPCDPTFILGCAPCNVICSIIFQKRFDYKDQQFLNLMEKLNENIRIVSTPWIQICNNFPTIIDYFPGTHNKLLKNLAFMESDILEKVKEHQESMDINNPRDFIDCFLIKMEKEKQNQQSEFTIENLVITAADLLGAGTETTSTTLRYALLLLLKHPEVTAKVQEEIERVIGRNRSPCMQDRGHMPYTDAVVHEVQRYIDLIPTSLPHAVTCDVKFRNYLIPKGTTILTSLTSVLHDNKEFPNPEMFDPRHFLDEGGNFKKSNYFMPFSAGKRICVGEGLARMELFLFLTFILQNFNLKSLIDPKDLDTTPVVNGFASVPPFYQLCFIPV
# T1 sequence (P06133 24-528): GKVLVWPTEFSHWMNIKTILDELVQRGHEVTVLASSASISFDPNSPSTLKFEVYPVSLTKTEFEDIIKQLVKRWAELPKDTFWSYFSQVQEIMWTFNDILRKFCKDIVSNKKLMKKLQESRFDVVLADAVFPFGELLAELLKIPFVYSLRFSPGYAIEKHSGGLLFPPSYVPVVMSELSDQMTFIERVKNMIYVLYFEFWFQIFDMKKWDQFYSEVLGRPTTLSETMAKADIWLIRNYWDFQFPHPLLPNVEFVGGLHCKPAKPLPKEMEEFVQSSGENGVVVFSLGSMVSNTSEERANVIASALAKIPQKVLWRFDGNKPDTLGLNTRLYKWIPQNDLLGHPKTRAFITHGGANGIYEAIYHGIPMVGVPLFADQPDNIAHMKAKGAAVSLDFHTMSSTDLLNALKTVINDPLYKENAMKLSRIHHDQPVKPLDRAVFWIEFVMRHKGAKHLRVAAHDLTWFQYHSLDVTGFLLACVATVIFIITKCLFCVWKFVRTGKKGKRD
glucuronidation activity for ticagrelor (recombinant human UGT2B4),"IC50 (CYP2B6; CYP2B6, bupropion hydroxylase, HLM 0.2 mg/ml)","inhibition at 10 μM (CYP2B6; human, human liver microsomes, pH 7.4, probe bupropion (150 μM), hydroxy bupropion formation, HLM, 10 μM ticagrelor-O-Glu)","inhibition at 100 µM (CYP2B6; human, human liver microsomes, pH 7.4, probe bupropion (150 μM), hydroxy bupropion formation, HLM, 100 μM ticagrelor-O-Glu)","IC50 (CYP2C19; CYP2C19, [S]-mephenytoin 4′-hydroxylase, HLM 0.2 mg/ml)","inhibition at 10 μM (CYP2C19; human, human liver microsomes, pH 7.4, probe mephenytoin (20 μM), S-4-hydroxy mephenytoin formation, HLM, 10 μM ticagrelor-O-Glu, read-out: inhibition of CYP2C19 enzyme activity)","inhibition at 100 µM (CYP2C19; human, human liver microsomes, pH 7.4, probe mephenytoin (20 μM), S-4-hydroxy mephenytoin formation, HLM, 100 μM ticagrelor-O-Glu, read-out: inhibition of CYP2C19 enzyme activity)",SMILES
no glucuronidation activities,–,–,–,–,–,–,CCCSc1nc(N[C@@H]2C[C@H]2c2ccc(F)c(F)c2)c2nnn([C@@H]3C[C@H](OCCO)[C@@H](O)[C@H]3O)c2n1 [Ticagrelor]
–,45 µM,19.1%,77.9%,18.8 µM,32.7%,83.6%,"CCCSc1nc(N[C@@H]2C[C@H]2c2ccc(F)c(F)c2)c2nnn([C@@H]3C[C@H](OCCO[C@@H]4O[C@H](C(=O)O)[C@@H](O)[C@H](O)[C@H]4O)[C@@H](O)[C@H]3O)c2n1 [Ticagrelor-O-Glu, ticagrelor-O-glucuronide]"
